Several values for one entry are separate records, joined by “and”; a condition that tells them apart may be missing. Identical values can stand only once. Like-named read-outs stand apart in the source and are kept apart here. Marks after values point to notes of the source that are not given here. Numbered stars: 1 amine (or outer) side, 2 acyl side, 3 side chain; on linkers, the order of the positions; unused ones are H or OH. Bridge positions count the residues as written; N and C are the ends. Square brackets hold non-standard residues; d marks the D form. Side chains are listed from the residue outwards. Peptide text beside a SMILES is read from it. * marks the point of attachment. γGlu = O=C(O)[C@H](CCC(=O)[*:2])N[*:1]; βAsp = O=C(O)[C@H](CC(=O)[*:2])N[*:1]; Palmitoyl = CCCCCCCCCCCCCCCC(=O)*; Lauroyl = CCCCCCCCCCCC(=O)*; Octanoyl = CCCCCCCC(=O)*; βAla = NCCC(=O)O
Key:
EphA4 Fc [1] = assay: ELISA measuring inhibition of ephrin-A5 AP binding to immobilized EphA4 Fc; parameters: species or system human or mouse
EphA4 Fc [2] = assay: ELISA inhibition of ephrin-A5 AP binding to EphA4 Fc in the presence of HSA, BSA or methyl-β-cyclodextrin; details: for effect of HSA on potency: presence vs absence of 40 mg/mL HSA, tested in parallel; for IC50: read-out: IC50 ± SE (n) by ELISA with HSA or BSA, 40 mg/mL delipidated HSA
From the text: To determine whether albumin binding to the lipidated compounds affects their ability to bind EphA4, the effects of delipidated human serum albumin (HSA) on the inhibitory potency of some of the compounds were examined.

[3] = In vivo half-life: active compound remaining in mouse blood, deduced from apparent IC50 of plasma in the EphA4-ephrinA5 ELISA; details: for half-life: in vivo, read-out: In vivo half-life (converted)
Procedure: To examine the persistence of compounds in the blood circulation, an approach was devised to determine the concentration of compound in mouse blood by taking advantage of the ELISA measuring inhibition of EphA4-ephrinA5 interaction.
Lipidated compounds dissolved in DMSO were diluted in […] PBS (to a 5% final DMSO concentration) or in […] PBS supplemented with 20 or 40 mg/mL BSA or 6.5 mM methyl-β-cyclodextrin for intravenous or intraperitoneal injection. Neutral pH of the compound solution was verified before injection. PEGylated compounds were dissolved in […] PBS before intraperitoneal injection. Peptides were sterile filtered before administration. Blood from each mouse was collected at 3 different time points after compound injection, the first 2 times by retro-orbital bleeding and the third time by terminal cardiac bleeding under deep anesthesia. Red blood cells were removed by centrifugation from blood treated with heparin and the resulting plasma was frozen in aliquots.
For each time point, a dose-response curves by measuring inhibition of EphA4-ephrinA5 binding at different plasma dilutions was obtained.

[4] = inhibition of ephrin-A5 AP binding to EphA4 Fc, averages of all experiments, read-out: IC50 ± SE (n) by ELISA
[5] = mouse, ip, mouse, IP (intraperitoneal administration)
[6] = mouse, iv, mouse, IV (intravenous administration)

CC(C)[C@@H]1NC(=O)[C@@H](NC(=O)[C@H](Cc2ccc(O)cc2)NC(=O)[C@@H]2CCCN2C(=O)[C@H](C)N)CSSC[C@@H](C(=O)NCC(=O)NCC(=O)N[C@@H](CCCCN)C(=O)NCC(N)=O)NC(=O)[C@H](CO)NC(=O)[C@H](Cc2c[nH]c3ccccc23)NC(=O)[C@H](CO)NC(=O)CCNC(=O)[C@H](CCCNC(=N)N)NC(=O)[C@H](Cc2ccc(O)cc2)NC1=O [Compound 2]
potency compared with APY-d2 (EphA4 Fc [1]; tested in parallel in the same ELISA): not significantly different from that for APY-d2 | effect of HSA on potency (EphA4 Fc [2]): only a very small effect

CC(C)[C@@H]1NC(=O)[C@@H](NC(=O)[C@H](Cc2ccc(O)cc2)NC(=O)[C@@H]2CCCN2C(=O)[C@H](C)N)CSSC[C@@H](C(N)=O)NC(=O)[C@H](CO)NC(=O)[C@H](Cc2c[nH]c3ccccc23)NC(=O)[C@H](CO)NC(=O)CCNC(=O)[C@H](CCCCN)NC(=O)[C@H](Cc2ccc(O)cc2)NC1=O [Compound 1, APYCVYKβASWSC-NH2] (H-APYCVYK[βAla]SWSC-NH2; disulfide 4-12)
IC50 (EphA4 Fc [1]; [4]): 67 ± 10 nM | effect of HSA on potency (EphA4 Fc [2]): only a very small effect | IC50 (EphA4 Fc [2]): 55 ± 13 nM

CCCCCCCCCCCC(=O)NCCCC[C@@H]1NC(=O)[C@H](Cc2ccc(O)cc2)NC(=O)[C@H](C(C)C)NC(=O)[C@@H](NC(=O)[C@H](Cc2ccc(O)cc2)NC(=O)[C@@H]2CCCN2C(=O)CCN)CSSC[C@@H](C(N)=O)NC(=O)[C@H](CO)NC(=O)[C@H](Cc2c[nH]c3ccccc23)NC(=O)[C@H](CO)NC(=O)CCNC1=O [Compound 8, βAPYCVYK(lauroyl)βASWSC-NH2] (H-[βAla]PYCVYK(Lauroyl)[βAla]SWSC-NH2; disulfide 4-12)
IC50 (EphA4 Fc [1]; [4]): 390 ± 80 nM

CCCCCCCCCCCC(=O)N[C@@H](CCC(=O)NCCCC[C@@H]1NC(=O)[C@H](Cc2ccc(O)cc2)NC(=O)[C@H](C(C)C)NC(=O)[C@@H](NC(=O)[C@H](Cc2ccc(O)cc2)NC(=O)[C@@H]2CCCN2C(=O)CCN)CSSC[C@@H](C(N)=O)NC(=O)[C@H](CO)NC(=O)[C@H](Cc2c[nH]c3ccccc23)NC(=O)[C@H](CO)NC(=O)CCNC1=O)C(=O)O [Compound 11, βAPYCVYK(lauroyl-γE)βASWSC-NH2] (H-[βAla]PYCVYK([γGlu-Lauroyl])[βAla]SWSC-NH2; disulfide 4-12)
IC50 (EphA4 Fc [1]; [4]): 84 ± 13 nM | half-life [3, 5]: 30 to 60 min

βAPYCVYRβASWSC-linker2-PEG (XPYCVYRXSWSCXXK; not fully specified; non-natural residues; cyclised or stapled) [APY-d3-PEG2]
potency compared with APY-d3 (EphA4 Fc [1]; ELISA inhibition of EphA4-ephrin-A5 interaction): several fold less potent than non-PEGylated APY-d3 | IC50 (EphA4 Fc [1]; ELISA inhibition of EphA4-ephrin-A5 interaction, read-out: IC50 (approximate)): ~80 nM

CCCCCCCC(=O)NCCCC[C@@H]1NC(=O)[C@H](Cc2ccc(O)cc2)NC(=O)[C@H](C(C)C)NC(=O)[C@@H](NC(=O)[C@H](Cc2ccc(O)cc2)NC(=O)[C@@H]2CCCN2C(=O)CCN)CSSC[C@@H](C(N)=O)NC(=O)[C@H](CO)NC(=O)[C@H](Cc2c[nH]c3ccccc23)NC(=O)[C@H](CO)NC(=O)CCNC1=O [Compound 4, βAPYCVYK(octanoyl)βASWSC-NH2] (H-[βAla]PYCVYK(Octanoyl)[βAla]SWSC-NH2; disulfide 4-12)
IC50 (EphA4 Fc [2]): 100 ± 30 nM

CCCCCCCC(=O)NCCCC[C@H](NC(=O)CNC(=O)CNC(=O)[C@@H]1CSSC[C@H](NC(=O)[C@H](Cc2ccc(O)cc2)NC(=O)[C@@H]2CCCN2C(=O)CCN)C(=O)N[C@@H](C(C)C)C(=O)N[C@@H](Cc2ccc(O)cc2)C(=O)N[C@@H](CCCNC(=N)N)C(=O)NCCC(=O)N[C@@H](CO)C(=O)N[C@@H](Cc2c[nH]c3ccccc23)C(=O)N[C@@H](CO)C(=O)N1)C(=O)NCC(N)=O [Compound 7]
IC50 (EphA4 Fc [1]; [4]): 34 ± 6 nM | IC50 (EphA4 Fc [2]): 110 ± 30 nM

CCCCCCCCCCCCCCCC(=O)N[C@@H](CCC(=O)N[C@@H](CCC(=O)NCCCC[C@H](NC(=O)CNC(=O)CNC(=O)[C@@H]1CSSC[C@H](NC(=O)[C@H](Cc2ccc(O)cc2)NC(=O)[C@@H]2CCCN2C(=O)CCN)C(=O)N[C@@H](C(C)C)C(=O)N[C@@H](Cc2ccc(O)cc2)C(=O)N[C@@H](CCCNC(=N)N)C(=O)NCCC(=O)N[C@@H](CO)C(=O)N[C@@H](Cc2c[nH]c3ccccc23)C(=O)N[C@@H](CO)C(=O)N1)C(=O)NCC(N)=O)C(=O)O)C(=O)O [Compound 19]
less potent than compound 15 (EphA4 Fc [1]): 5-6 fold | IC50 (EphA4 Fc [1]; [4]): 160 ± 30 nM | better potency compared to compound 18 (single γGlu) (EphA4 Fc [1]; two γGlu residues vs single γGlu, palmitoyl): ~3 fold | half-life [3, 5]: 60 to 90 min | half-life [3, 6]: ~48 min

CCCCCCCCCCCCCCCC(=O)N[C@@H](CCC(=O)N[C@@H](CCC(=O)NCCCC[C@H](NC(=O)[C@H](CO)NC(=O)CNC(=O)CNC(=O)CNC(=O)[C@@H]1CSSC[C@H](NC(=O)[C@H](Cc2ccc(O)cc2)NC(=O)[C@@H]2CCCN2C(=O)CCN)C(=O)N[C@@H](C(C)C)C(=O)N[C@@H](Cc2ccc(O)cc2)C(=O)N[C@@H](CCCNC(=N)N)C(=O)NCCC(=O)N[C@@H](CO)C(=O)N[C@@H](Cc2c[nH]c3ccccc23)C(=O)N[C@@H](CO)C(=O)N1)C(=O)NCC(N)=O)C(=O)O)C(=O)O [Compound 20] (H-[βAla]PYCVYR[βAla]SWSCGGGSK([γGlu-γGlu-Palmitoyl])G-NH2; disulfide 4-12)
IC50 (EphA4 Fc [1]; [4]): 190 ± 20 nM

CCCCCCCCCCCC(=O)N[C@@H](CCC(=O)NCCCC[C@H](NC(=O)CNC(=O)CNC(=O)[C@@H]1CSSC[C@H](NC(=O)[C@H](Cc2ccc(O)cc2)NC(=O)[C@@H]2CCCN2C(=O)CCN)C(=O)N[C@@H](C(C)C)C(=O)N[C@@H](Cc2ccc(O)cc2)C(=O)N[C@@H](CCCNC(=N)N)C(=O)NCCC(=O)N[C@@H](CO)C(=O)N[C@@H](Cc2c[nH]c3ccccc23)C(=O)N[C@@H](CO)C(=O)N1)C(=O)NCC(N)=O)C(=O)O [Compound 14]
IC50 (EphA4 Fc [1]; [4]): 52 ± 10 nM | FOLD INCREASE IN APPARENTIC IC COMPARED TO CONTROL ([3]; 0 minutes (control)): 1.0 fold | IC50 ([3]; 0 minutes: control, compound diluted in plasma in vitro): 81 nM | % PEPTIDE 14 REMAINING IN THE BLOOD ([3]; 0 minutes, ESTIMATED (all injected compound in 2.5 mL blood)): 100* % | FOLD INCREASE IN APPARENTIC IC COMPARED TO CONTROL ([3]; 60 minutes after intraperitoneal injection): 2.1 fold | % PEPTIDE 14 REMAINING IN THE BLOOD ([3]; 60 minutes after intraperitoneal injection, MEASURED): 48.2% | FOLD INCREASE IN APPARENTIC IC COMPARED TO CONTROL ([3]; 120 minutes after intraperitoneal injection): 5 fold and 4.6 fold | % PEPTIDE 14 REMAINING IN THE BLOOD ([3]; 120 minutes after intraperitoneal injection, MEASURED): 20% and 21.8% | FOLD INCREASE IN APPARENTIC IC COMPARED TO CONTROL ([3]; 240 minutes after intraperitoneal injection): 22.5 fold | % PEPTIDE 14 REMAINING IN THE BLOOD ([3]; 240 minutes after intraperitoneal injection, MEASURED): 4.5% | half-life [3, 5]: 30 to 60 min | half-life [3, 6]: 30 to 42 min | IC50 ([3]; plasma 60 minutes after intraperitoneal injection, mouse): 168 nM | IC50 ([3]; plasma 120 minutes after intraperitoneal injection, mouse): 371 nM | IC50 ([3]; plasma 240 minutes after intraperitoneal injection, mouse): 1820 nM

CCCCCCCCCCCC(=O)N[C@@H](CC(=O)NCCCC[C@H](NC(=O)CNC(=O)CNC(=O)[C@@H]1CSSC[C@H](NC(=O)[C@H](Cc2ccc(O)cc2)NC(=O)[C@@H]2CCCN2C(=O)CCN)C(=O)N[C@@H](C(C)C)C(=O)N[C@@H](Cc2ccc(O)cc2)C(=O)N[C@@H](CCCNC(=N)N)C(=O)NCCC(=O)N[C@@H](CO)C(=O)N[C@@H](Cc2c[nH]c3ccccc23)C(=O)N[C@@H](CO)C(=O)N1)C(=O)NCC(N)=O)C(=O)O [Compound 13]
IC50 (EphA4 Fc [1]; [4]): 49 ± 11 nM

CCCCCCCCCCCCCCCC(=O)N[C@@H](CCC(=O)NCCCC[C@@H]1NC(=O)[C@H](Cc2ccc(O)cc2)NC(=O)[C@H](C(C)C)NC(=O)[C@@H](NC(=O)[C@H](Cc2ccc(O)cc2)NC(=O)[C@@H]2CCCN2C(=O)CCN)CSSC[C@@H](C(N)=O)NC(=O)[C@H](CO)NC(=O)[C@H](Cc2c[nH]c3ccccc23)NC(=O)[C@H](CO)NC(=O)CCNC1=O)C(=O)O [Compound 17, βAPYCVYK(palmitoyl-γE)BASWSC-NH2] (H-[βAla]PYCVYK([γGlu-Palmitoyl])[βAla]SWSC-NH2; disulfide 4-12)
IC50 (EphA4 Fc [1]; [4]): 2300 nM

CCCCCCCCCCCCCCCC(=O)N[C@@H](CCC(=O)NCCCC[C@H](NC(=O)CNC(=O)CNC(=O)[C@@H]1CSSC[C@H](NC(=O)[C@H](Cc2ccc(O)cc2)NC(=O)[C@@H]2CCCN2C(=O)CCN)C(=O)N[C@@H](C(C)C)C(=O)N[C@@H](Cc2ccc(O)cc2)C(=O)N[C@@H](CCCNC(=N)N)C(=O)NCCC(=O)N[C@@H](CO)C(=O)N[C@@H](Cc2c[nH]c3ccccc23)C(=O)N[C@@H](CO)C(=O)N1)C(=O)NCC(N)=O)C(=O)O [Compound 18]
IC50 (EphA4 Fc [1]; [4]): 520 ± 80 nM | half-life [3, 5]: 60 to 90 min | half-life [3, 6]: ~48 min

CCCCCCCCCCCC(=O)N[C@@H](CC(=O)NCCCC[C@@H]1NC(=O)[C@H](Cc2ccc(O)cc2)NC(=O)[C@H](C(C)C)NC(=O)[C@@H](NC(=O)[C@H](Cc2ccc(O)cc2)NC(=O)[C@@H]2CCCN2C(=O)CCN)CSSC[C@@H](C(N)=O)NC(=O)[C@H](CO)NC(=O)[C@H](Cc2c[nH]c3ccccc23)NC(=O)[C@H](CO)NC(=O)CCNC1=O)C(=O)O [Compound 10, βAPYCVYK(lauroyl-βD)βASWSC-NH2] (H-[βAla]PYCVYK([βAsp-Lauroyl])[βAla]SWSC-NH2; disulfide 4-12)
IC50 (EphA4 Fc [1]; [4]): 110 ± 10 nM

From US20260139007A1, “EPHA4 ANTAGONISTS AND USES THEREOF” (SANFORD BURNHAM PREBYS MEDICAL DISCOVERY INSTITUTE, priority 2023, published 2026)
